Patent US5952294A, “Peptidyl prodrugs and methods of making and using the same” (University of Pittsburgh of the Commonwealth System of …, priority 1996, dated 1999)
Converted amounts (≈) assume the structure as drawn.

Legend:
[1] = Release of ara-C from prodrugs in human plasma by HPLC; format: in vitro ADME; conditions: pH 7.4, 22° C.
Description: (§1) HPLC studies of the cyclization process in plasma were performed on a 4 mg/ml solution of prodrug in plasma. At appropriate time intervals, 25 microliter aliquots were removed and 0.20 ml of CH3 CN was added to precipitate the protein. After centrifugation, about 25 microliters of clear supernatant liquid was injected directly into the HPLC port. The HPLC analysis was performed with a C-18 reverse phase column using an H2 O/CH3 CN (1:1) eluent and the UV detector was set at 250 nm. The relative concentration of ara-C was determined by the relative peak areas. […] The disappearance of characteristic signals of the prodrugs was accompanied by the appearance of signals of ara-C and the corresponding heterocycles. […] FIGS. 6 through 8 plot the percent concentration of prodrug over time. Table 1 below provides the half life (in hours) for ara-C release of prodrugs 10, 15, 17 and 19 as determined by NMR and HPLC analysis.

[2] = test system: Murine L-1210 leukemia cells; assay: L-1210 cell line growth inhibition assay; format: cell-based
Description: The antiproliferation activity of compounds 10, 15, 17 and 19, as compared to ara-C, was tested in an L-1210 cell line growth inhibition assay using various concentrations and continuous exposure. Cell numbers were determined 72 hours after initial drug exposure. Murine L-1210 leukemia cells were grown in suspension using Dulbecco's medium (Gibco/BRL) supplemented with 10% fetal bovine serum (FBS, HyClone), […] of L-glutamine, 100 U/ml penicillin G sodium, and 100 μg/m1 streptomycin (Gibco/BRL). Cells were grown in a humidified incubator as 37° C. under an atmosphere of 95% air and 5% CO2. Cells were routinely passaged at a 1:5 ratio and found to be free of mycoplasma contamination.

[3] = Release of ara-C from prodrugs in bovine plasma by HPLC; format: in vitro ADME; conditions: pH 7.4, 22° C.
Description: as §1

[4] = Stability in bovine or human plasma by HPLC (plasma not distinguished); format: in vitro ADME; conditions: for Cyclization / stability in plasma: bovine or human plasma, HPLC
Description: as §1
The stability of these compounds in bovine and human plasma was determined by HPLC analysis (Entry 5 and 6 in Table 1).

[5] = Release of ara-C from prodrugs (cyclization) in CD3OD or D2O monitored by 1H NMR; format: physicochemical; conditions: for Half-life (hours) for release of ara-C, t1/2: 22° C., 1H NMR
Description: The stability of the ara-C prodrug compounds 10, 15, 17 and 19, prepared according to Example 1, in various reaction media was investigated by NMR and HPLC analyses. The ^1 H NMR studies of the cyclization process were performed on a 4 mg/ml solution of prodrug in CD3 OD or D2 O. Sodium acetate (2 mg) or acetic acid (2 microliters) were added neat to the samples to control the pH. The spectra were collected in appropriate time intervals, and the ratio of prodrug to drug was determined by comparing the integration of the H-C (6) on the nucleoside of prodrug and ara-C.

[6] = test system: human promyelocytic leukemia HL-60 cells; assay: Induction of apoptosis (morphology) in HL-60 cells; format: cell-based; conditions: for Maximum percentage of cells exhibiting frank apoptotic morphology: FIG. 9; for Appearance of apoptotic bodies / increase in apoptosis: 24 hours exposure, about 10 micromols
Description: (§2) The ability of the prodrug compounds to kill human tumor cells was tested, specifically their ability to induce apoptosis in human promyelocytic leukemia HL-60 cells. These cells are known to undergo apoptosis following exposure to ara-C. The ability of the prodrugs to cause internucleosomal DNA fragmentation, a characteristic feature of apoptosis in HL-60 cells, was also investigated. The HL-60 were cultured in essentially the same manner as the L-1210 cells, only using Iscoue's modification for the medium. Internucleosomal DNA fragmentation was determined as follows. Following the indicated drug treatments, aliquots of cells (1×10^6) were pelleted by centrifugation at 100×g for 5 minutes, washed with PBS, solubilized with 20 microliters of lysis buffer (10 mM EDTA, 0.5% sarkosyl, 1 mg/ml proteinase K, 50 mM Tris, pH8), and incubated at 50° C. for 1 hour. After incubation, RNaseA (Boehringer Mannheim) was added to a final concentration of 0.33 mg/ml and incubated for an additional hour at 37° C. The lysate was loaded into dry wells of a 1.8% agarose gel, the wells were sealed with low melting point agarose, and the DNA was electrophoresed using Tris-phosphate-EDTA (TPE) running buffer. After electrophoresis, the DNA was stained by immersion of the gel in water containing 1 μg/ml ethidium bromide (Sigma). The DNA was visualized and photographed using an ultraviolet transilluminator.
The formation of apoptotic bodies occurred within a maximal halftime of 4 hours and there was no noticeable difference in the kinetics of apoptosis among ara-C, 10, 15 and 17.

[7] = test system: human promyelocytic leukemia HL-60 cells; assay: Internucleosomal DNA fragmentation in HL-60 cells; format: cell-based
Description: as §2, with “These cells are known to undergo apoptosis following exposure to ara-C.” left out
DNA fragmentation of the compounds was tested.

[8] = total; cited from earlier work
[9] = continuous exposure, cell numbers 72 hours after initial drug exposure
[10] = Mus musculus, L1210, continuous exposure, cell numbers 72 hours after initial drug exposure

CC(C)(NC(=O)[C@@H](N)Cc1ccc(OCc2ccccc2)cc1)C(=O)Nc1ccn([C@@H]2O[C@H](CO)[C@@H](O)[C@@H]2O)c(=O)n1.Cl [Compound 10, Tyr(OBn)-Aib-ara-C hydrochloride]
Half-life (hours) for release of ara-C, t1/2 [1]: 0.3 h | IC50 and IC90 values compared with ara-C control ([2]; L-1210 cells): essentially identical to the ara-C control | L-1210 Cell Growth Inhibition IC50 [2, 9]: 1.3 ng/mL | L-1210 Cell Growth Inhibition IC90 [2, 9]: 5 ng/mL | Half-life (hours) for release of ara-C, t1/2 [3]: 0.4 h | Cyclization / stability in plasma [4]: cyclize readily | Half-life (hours) for release of ara-C, t1/2 ([5]; CD3OD): 42 h | Half-life (hours) for release of ara-C, t1/2 ([5]; CD3OD, HOAc): 31 h | Half-life (hours) for release of ara-C, t1/2 ([5]; CD3OD, NaOAc): 0.3 h | Faster cyclization upon change from CD3OD to D2O ([5]; D2O versus CD3OD): about 50% | Half-life (hours) for release of ara-C, t1/2 ([5]; D2O): 21 h | Maximal halftime of formation of apoptotic bodies [6]: ≤ 4 h | Maximum percentage of cells exhibiting frank apoptotic morphology [6]: approximately 25%

CC(C)(N)C(=O)NNC(=O)Nc1ccn([C@@H]2O[C@H](CO)[C@@H](O)[C@@H]2O)c(=O)n1.Cl [Compound 19, Aib-2-Azagly-ara-C hydrochloride]
Half-life (hours) for release of ara-C, t1/2 [1]: > 10 h | Times less toxic than ara-C in L-1210 test ([2]; L-1210 cells, versus ara-C): about 500 times | L-1210 Cell Growth Inhibition IC50 [2, 9]: 600 ng/mL | L-1210 Cell Growth Inhibition IC90 [2, 9]: 1400 ng/mL | Half-life (hours) for release of ara-C, t1/2 [3]: > 10 h | Cyclization / stability in plasma [4]: good stability | ara-C detected in plasma after 48 hours ([4]; plasma, after 48 hours): No ara-C was detected | Half-life (hours) for release of ara-C, t1/2 ([5]; CD3OD): > 2000 h | Half-life (hours) for release of ara-C, t1/2 ([5]; CD3OD, HOAc): > 2000 h | Half-life (hours) for release of ara-C, t1/2 ([5]; CD3OD, NaOAc): 800 h | Cyclization to release the drug ([5]; in the presence of NaOAc): extremely slow | Cyclization to release the drug ([5]; neutral or acid conditions): did not undergo cyclization | Appearance of apoptotic bodies / increase in apoptosis [6]: no obvious increase in apoptosis | Apoptotic activity after preincubation ([6]; compound preincubated in serum-free medium for 15 days, FIG. 10): slightly less than ara-C | DNA fragmentation after preincubation ([7]; compound preincubated in serum-free medium for 15 days): DNA ladders similar ara-C

Nc1ccn([C@@H]2O[C@H](CO)[C@@H](O)[C@@H]2O)c(=O)n1 [ara-C, 1-(β-D-arabinofuranosyl) cytosine, reference compound]
Fraction of dose excreted in the urine within 24 hours [8]: About 80% | IC50 [2, 10]: 1.5 ng/mL (≈ 0.00617 µM) | IC90 [2, 10]: 4.3 ng/mL (≈ 0.0177 µM) | Maximal halftime of formation of apoptotic bodies [6]: ≤ 4 h | Appearance of apoptotic bodies / increase in apoptosis [6]: obvious apoptotic bodies | Maximum percentage of cells exhibiting frank apoptotic morphology [6]: approximately 25% | Internucleosomal DNA fragmentation ([7]; about 10 micromols, 4 hours): displayed internucleosomal 180-200 base pair DNA fragments

Aib-Aib-ara-C hydrochloride [Compound 15]
Half-life (hours) for release of ara-C, t1/2 [1]: 0.4 h | IC50 and IC90 values compared with ara-C control ([2]; L-1210 cells): essentially identical to the ara-C control | L-1210 Cell Growth Inhibition IC50 [2, 9]: 1.1 ng/mL | L-1210 Cell Growth Inhibition IC90 [2, 9]: 3.4 ng/mL | Half-life (hours) for release of ara-C, t1/2 [3]: 0.5 h | Cyclization / stability in plasma [4]: cyclize readily | Half-life (hours) for release of ara-C, t1/2 ([5]; CD3OD): > 1000 h | Half-life (hours) for release of ara-C, t1/2 ([5]; CD3OD, HOAc): > 1000 h | Half-life (hours) for release of ara-C, t1/2 ([5]; CD3OD, NaOAc): 1.3 h | Maximal halftime of formation of apoptotic bodies [6]: ≤ 4 h | Maximum percentage of cells exhibiting frank apoptotic morphology [6]: approximately 25%

Glc-Aib-ara-C [Compound 17]
Half-life (hours) for release of ara-C, t1/2 [1]: 0.3 h | IC50 and IC90 values compared with ara-C control ([2]; L-1210 cells): essentially identical to the ara-C control | L-1210 Cell Growth Inhibition IC50 [2, 9]: 1.0 ng/mL | L-1210 Cell Growth Inhibition IC90 [2, 9]: 3.4 ng/mL | Half-life (hours) for release of ara-C, t1/2 [3]: 0.4 h | Cyclization / stability in plasma [4]: cyclize readily | Half-life (hours) for release of ara-C, t1/2 ([5]; CD3OD): 360 h | Half-life (hours) for release of ara-C, t1/2 ([5]; CD3OD, HOAc): 860 h | Half-life (hours) for release of ara-C, t1/2 ([5]; CD3OD, NaOAc): 1.4 h | Maximal halftime of formation of apoptotic bodies [6]: ≤ 4 h | Maximum percentage of cells exhibiting frank apoptotic morphology [6]: approximately 25%
